Source: ChEMBL document CHEMBL1201862, “PubChem BioAssay data set” (2004)
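Exposure lasted 48 hours, with cells grown in 96-well plates and compounds tested at five concentrations. GI50 marks 50% less growth.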 The source made the active and inactive calls. Cut-off read from the data, not from the text of the source: active = GI50 up to about 1.1 µM and inactive = higher.

Assays:
Assay in all cases: growth of human tumour cells (NCI), 48 h
SNB-19 = tested on: SNB-19
UO-31 = tested on: UO-31
MOLT-4 = tested on: MOLT-4
K562 = tested on: K562
SF-295 = tested on: SF-295
SK-MEL-28 = tested on: SK-MEL-28
Hs-578T = tested on: Hs-578T
HOP-62 = tested on: HOP-62
NCI-H460 = tested on: NCI-H460
MCF7 = tested on: MCF7
LOX IMVI = tested on: LOX IMVI
HCT-116 = tested on: HCT-116
MDA-N = tested on: MDA-N
MDA-MB-435 = tested on: MDA-MB-435
HOP-92 = tested on: HOP-92
SK-MEL-5 = tested on: SK-MEL-5
EKVX = tested on: EKVX
ACHN = tested on: ACHN
UACC-62 = tested on: UACC-62
SNB-75 = tested on: SNB-75

Compound | GI50 (SNB-19) | GI50 (UO-31) | GI50 (MOLT-4) | GI50 (K562) | GI50 (SF-295) | GI50 (SK-MEL-28) | GI50 (Hs-578T) | GI50 (HOP-62) | GI50 (NCI-H460) | GI50 (MCF7) | GI50 (LOX IMVI) | GI50 (HCT-116) | GI50 (MDA-N) | GI50 (MDA-MB-435) | GI50 (HOP-92) | GI50 (SK-MEL-5) | GI50 (EKVX) | GI50 (ACHN) | GI50 (UACC-62) | GI50 (SNB-75)
COC(=O)c1c(C#N)c(N)nc2c1CCC2 | > 100 µM (inactive) | 69.7 µM (inactive) | > 100 µM (inactive) | > 100 µM (inactive) | > 100 µM (inactive) | > 100 µM (inactive) | 70 µM (inactive) | > 100 µM (inactive) | > 100 µM (inactive) | > 100 µM (inactive) | > 100 µM (inactive) | > 100 µM (inactive) | > 100 µM (inactive) | > 100 µM (inactive) | > 100 µM (inactive) | > 100 µM (inactive) | > 100 µM (inactive) | > 100 µM (inactive) | > 100 µM (inactive) | 
CN(N=O)C(=O)N[C@H]1C(O)O[C@H](CO)[C@@H](O)[C@@H]1O (some centres undefined) | 565 µM (inactive) | 658 µM (inactive) | 558 µM (inactive) | 498 µM (inactive) | 589 µM (inactive) | 611 µM (inactive) | > 750 µM (inactive) | 568 µM (inactive) | 491 µM (inactive) | 518 µM (inactive) |  | 573 µM (inactive) | > 750 µM (inactive) | 515 µM (inactive) | 548 µM (inactive) | 413 µM (inactive) | 643 µM (inactive) | > 750 µM (inactive) | 550 µM (inactive) | 484 µM (inactive)
O=C(O)c1ccc(CNCc2ccccc2)cc1 | > 100 µM (inactive) | > 100 µM (inactive) | > 100 µM (inactive) | > 100 µM (inactive) | > 100 µM (inactive) | > 100 µM (inactive) | > 100 µM (inactive) | > 100 µM (inactive) | > 100 µM (inactive) | > 100 µM (inactive) | > 100 µM (inactive) | > 100 µM (inactive) | > 100 µM (inactive) | > 100 µM (inactive) | > 100 µM (inactive) | > 100 µM (inactive) | > 100 µM (inactive) | > 100 µM (inactive) | > 100 µM (inactive) | 
CCOC(=O)[C@@]12NN=N[C@@H]1[C@H]1CO[C@H](c3ccccc3)N1C2=O | 10.2 µM (inactive) |  | 5.33 µM (inactive) |  | 11.6 µM (inactive) | 5.25 µM (inactive) | 4.6 µM (inactive) | 14.5 µM (inactive) | 4.44 µM (inactive) | 6.34 µM (inactive) | 2.18 µM (inactive) | 15 µM (inactive) | 11.1 µM (inactive) | 11.1 µM (inactive) | 1.64 µM (inactive) | 11.1 µM (inactive) | 13.9 µM (inactive) | 13.4 µM (inactive) | 7.6 µM (inactive) | 
C/C(=N\Nc1nc2ccccc2s1)c1cnccn1 | 3.67 µM (inactive) | 1.06 µM (active) | 0.461 µM (active) | 1.67 µM (inactive) | 2.76 µM (inactive) | 9.66 µM (inactive) | 2.33 µM (inactive) | 2.75 µM (inactive) | 1.77 µM (inactive) | 1.52 µM (inactive) |  | 1.5 µM (inactive) | 11.4 µM (inactive) | 6.01 µM (inactive) | 1.51 µM (inactive) | 2.57 µM (inactive) | 0.146 µM (active) | 0.397 µM (active) | 3.88 µM (inactive) | 2.8 µM (inactive)
Oc1nc(S)nc2nc3c4cccnc4c4ccccc4c3nc12 | > 100 µM (inactive) | > 100 µM (inactive) | > 100 µM (inactive) |  | > 100 µM (inactive) | 77.1 µM (inactive) | > 100 µM (inactive) | 52.7 µM (inactive) | 57.3 µM (inactive) | 88.3 µM (inactive) |  | > 100 µM (inactive) | > 100 µM (inactive) | > 100 µM (inactive) | > 100 µM (inactive) | > 100 µM (inactive) | > 100 µM (inactive) | > 100 µM (inactive) | > 100 µM (inactive) | 48.4 µM (inactive)
O=c1[nH]c(=O)n(C2OC(CO)C(O)C2O)c2ccsc12 (centres undefined) |  | > 100 µM (inactive) | > 100 µM (inactive) | > 100 µM (inactive) | > 100 µM (inactive) | > 100 µM (inactive) | > 100 µM (inactive) | > 100 µM (inactive) | > 100 µM (inactive) | > 100 µM (inactive) | > 100 µM (inactive) | > 100 µM (inactive) | > 100 µM (inactive) | > 100 µM (inactive) | > 100 µM (inactive) | > 100 µM (inactive) | > 100 µM (inactive) | > 100 µM (inactive) |  | > 100 µM (inactive)
CC(=O)O[C@H]1CC[C@@H](OC(C)=O)[C@H]2[C@H](O)[C@H](O)[C@@H]1n1c(=O)n(-c3ccccc3)c(=O)n12 | > 100 µM (inactive) | > 100 µM (inactive) | > 100 µM (inactive) | > 100 µM (inactive) | > 100 µM (inactive) | > 100 µM (inactive) | > 100 µM (inactive) | > 100 µM (inactive) |  | > 100 µM (inactive) | > 100 µM (inactive) | > 100 µM (inactive) | > 100 µM (inactive) | > 100 µM (inactive) | > 100 µM (inactive) | > 100 µM (inactive) | > 100 µM (inactive) | > 100 µM (inactive) | > 100 µM (inactive) | 
C#C[C@]1(O)CC[C@H]2[C@@H]3CCC4=C/C(=N/CCOC(=O)c5cccc6c(=O)c7ccccc7[nH]c56)CC[C@@H]4[C@H]3CC[C@@]21C | 90.2 µM (inactive) | 37.8 µM (inactive) | 25.9 µM (inactive) | 36.4 µM (inactive) | 23 µM (inactive) | 47.6 µM (inactive) | 35.2 µM (inactive) | 37.2 µM (inactive) | 32.7 µM (inactive) | 26.1 µM (inactive) | 28.3 µM (inactive) | 42.9 µM (inactive) | 50.7 µM (inactive) | 31.8 µM (inactive) | 23.1 µM (inactive) | 28 µM (inactive) | 46.3 µM (inactive) | 40.4 µM (inactive) | 36.8 µM (inactive) | 
CC(C)(C)OC(=O)N1C/C=C\C(=O)C2(OCCO2)c2ccccc21 | 35.5 µM (inactive) | 17.7 µM (inactive) | 19.5 µM (inactive) | 22 µM (inactive) | 26.4 µM (inactive) | 22.5 µM (inactive) | 45 µM (inactive) | 48.9 µM (inactive) | 22.7 µM (inactive) | 31.4 µM (inactive) | 16.7 µM (inactive) | 17.4 µM (inactive) | 20.4 µM (inactive) | 17.7 µM (inactive) | 15.9 µM (inactive) | 16.5 µM (inactive) | 31.3 µM (inactive) | 34.2 µM (inactive) |  | 28.2 µM (inactive)
CCOC(=O)C(NC(=O)CC(C)C)(Nc1ccc(C(F)(F)F)cc1)C(F)(F)F (centres undefined) | > 100 µM (inactive) | 61.7 µM (inactive) | 23 µM (inactive) | 23.9 µM (inactive) | > 100 µM (inactive) | > 100 µM (inactive) | 25.5 µM (inactive) | 36.1 µM (inactive) | 26.4 µM (inactive) | > 100 µM (inactive) | 84.5 µM (inactive) | 17.2 µM (inactive) | 32.6 µM (inactive) | > 100 µM (inactive) | 30.3 µM (inactive) | 82.8 µM (inactive) | > 100 µM (inactive) | 14.5 µM (inactive) |  | 6.31 µM (inactive)
Nc1sccc1S(=O)(=O)c1ccsc1N | > 100 µM (inactive) | > 100 µM (inactive) | > 100 µM (inactive) |  | > 100 µM (inactive) | > 100 µM (inactive) | > 100 µM (inactive) | > 100 µM (inactive) | > 100 µM (inactive) | > 100 µM (inactive) | > 100 µM (inactive) | > 100 µM (inactive) | > 100 µM (inactive) | > 100 µM (inactive) | > 100 µM (inactive) | > 100 µM (inactive) | > 100 µM (inactive) | > 100 µM (inactive) | > 100 µM (inactive) | > 100 µM (inactive)
CC1=NC(=Cc2ccc(O)cc2)C(=O)N1n1c(-c2ccccc2)nc2ccccc2c1=O | > 100 µM (inactive) | > 100 µM (inactive) | > 100 µM (inactive) | > 100 µM (inactive) | > 100 µM (inactive) | > 100 µM (inactive) | > 100 µM (inactive) | > 100 µM (inactive) | > 100 µM (inactive) | > 100 µM (inactive) | > 100 µM (inactive) | > 100 µM (inactive) | > 100 µM (inactive) | > 100 µM (inactive) |  | > 100 µM (inactive) | > 100 µM (inactive) | > 100 µM (inactive) | > 100 µM (inactive) | > 100 µM (inactive)
CCCNC(=O)CCC(C)[C@H]1CCC2C3C(C[C@H](OC(C)=O)[C@@]21C)[C@@]1(C)CCC2(C[C@H]1C[C@H]3OC(C)=O)OOC1(CCCCC1)OO2 (some centres undefined) | 7.18 µM (inactive) | 0.0893 µM (active) | 1.67 µM (inactive) | 4.05 µM (inactive) | 3.79 µM (inactive) | 55.5 µM (inactive) | 7.33 µM (inactive) | 0.261 µM (active) | 1.67 µM (inactive) | 3.04 µM (inactive) | 1.84 µM (inactive) | 2.93 µM (inactive) | 3.05 µM (inactive) | 2.23 µM (inactive) |  | 2.46 µM (inactive) | 1.58 µM (inactive) | 1.24 µM (inactive) | 2.01 µM (inactive) | 1.9 µM (inactive)
C=Cc1c(C)c(O)cc2c1-c1ccc(O)c(C)c1CC2 | 24.5 µM (inactive) | 14.8 µM (inactive) | 11.6 µM (inactive) |  | 14.9 µM (inactive) | 16.2 µM (inactive) | 3.11 µM (inactive) | 26.7 µM (inactive) | 20.1 µM (inactive) | 20.9 µM (inactive) | 16.1 µM (inactive) | 14.1 µM (inactive) | 13.6 µM (inactive) | 14.1 µM (inactive) | 23.2 µM (inactive) | 16 µM (inactive) | 1.97 µM (inactive) | 29.4 µM (inactive) | 7.5 µM (inactive) | 
